Molecules are shown by their SMILES.

Series [1] has as its system P. falciparum (NF54) gametocytes. Briefly: Standard membrane feeding assay (SMFA), gametocytes fed to Anopheles stephensi. It counts as cell-based, Plasmodium falciparum. Particulars: Plasmodium falciparum, NF54; gametocytes pre-incubated 24 h, oocysts counted day 7 post-feed; read-out: IC50 for reduction of the intensity of infection (oocysts). The procedure: Mature P. falciparum (NF54) gametocytes (14 day culture, 0.3–0.5% gametocytes, 2% haematocrit) were obtained from an automated tipper system and incubated with compound for 24 h as previously described. Anopheles stephensi (Sind-Kasur Nijmegen strain[39] were reared at 30 °C and 70–80% humidity, while exposed to a 12/12 h day/night cycle. On the day of feeding, the gametocyte culture was adjusted to 50% hematocrit with human red blood cells and human serum and fed to 3–5 day old mosquitoes using a glass membrane mini-feeder system containing 0.35 ml of the P. falciparum culture/compound mix[40]. Unfed and partially fed mosquitoes were removed after feeding and blood fed females were maintained at 26 °C and 70–80% humidity. Up to 20 surviving mosquitoes were collected on day 7 post-infection and oocysts were visualized using a 1% merchurochrome solution and quantified by microscopy. IC50 values were determined by logistic regression using Maximum Likelihood Estimation to find best fit[41].

A short description of a further series: physchem. The settings on record: pH 7.4. The method, then: (§1) Compound mlm hlm mLogD PAMPA HepG2 name (%rem) (%rem) (nm/s) (IC50 µM)
(§2) Supplementary Table 2. Compound Properties. MLM, HLM, mLogD and PAMPA . mlm (%rem): % of compound remaining after 30 minutes’ incubation with mouse liver microsomes; hlm (%rem): % of compound remaining after 40 minutes’ incubation with human liver microsomes; mLogD: measured LogD at pH 7.4; PAMPA: parallel artificial membrane permeability assay; HepG2: Cytotoxicity assay using HepG2 cells; n.t.: not tested.

The test system of a further series is P. chabaudi (AS). Briefly: Synchronous P. chabaudi AS model in BALB/c mice. The settings on record: single daily oral dose 50 mg/kg just prior to schizogony, 4 days. In kind it is in vivo, Plasmodium chabaudi. The procedure:
Similar experiments were performed using P. chabaudi AS (from David Walliker, University of Edinburgh) with the following modifications. To allow dosing to be carried out more conveniently during the day, reversal of the light/dark exposure of mice for 2 weeks prior to the experiment was used to switch schizogony from midnight to noon each day. Mice were dosed at different time points in an attempt to have maximal coverage at the point of schizogony. All animal work protocols carried out at LSHTM were approved and licensed by the United Kingdom Home Office as governed by law under the Animals (Scientific Procedures) Act of 1986, in strict accordance with the Code of Practice Part 1 for the housing and care of animals (21 March 2005), available at http://www.homeoffice.gov.uk/science-research/animal-research/

A short description of series [2]: Stability in human liver microsomes. Particulars: % of compound remaining after 40 minutes' incubation. The method, then:
as §1, §2
For orientation: Liver microsomes are vesicles of endoplasmic reticulum, rich in cytochrome P450 enzymes.

A further series concerns the target PfPKG T618Q (Plasmodium falciparum, UniProt Q8I719, T618Q). Description: Microfluidic mobility shift kinase assay, recombinant PfPKG T618Q gatekeeper mutant.
Series [3] is described as follows: Cytotoxicity assay using HepG2 cells. The settings on record: human. The procedure: as §1, §2
In the next series the test system is P. falciparum 3D7. Description: Hypoxanthine incorporation growth inhibition assay, asexual blood stage, wild-type 3D7. In kind it is cell-based, Plasmodium falciparum. Particulars: Plasmodium falciparum, 3D7, 72 h, read-out: EC50 WT. The procedure: Hypoxanthine incorporation assays[36] were performed on P. falciparum asexual blood stage parasites (wild-type 3D7 or T618Q gatekeeper mutant) to determine EC50 values for test compounds. Mixed staged parasites (primarily rings) were added to 96 well plates containing compounds at concentrations of 50 μM–0.3 nM. […] Assays were carried out in triplicate at least twice.

Series [4] is described as follows: Plasma levels in satellite groups of mice, P. berghei experiment. It counts as in vivo, mouse. The settings on record: BALB/c, mouse, in vivo; mice, oral 25 mg/kg, P. berghei experiment; read-out: plasma half-life (converted). The source says: Supplementary Figure 4. Plasma concentrations over time in rodent malaria models. […] Error bars show the standard deviation. (1 picture or pasted object on this page, not shown here)

Series [5] has as its system P. falciparum wild-type (3D7) stage V gametocytes. Description: Gametogenesis (rounding up) assay, wild-type 3D7 stage V gametocytes. In kind it is cell-based, Plasmodium falciparum. The settings on record: 30 µM xanthurenic acid; 2 µM ML1, 1 µM ML10. The method, then: Plasmodium falciparum clone 3D7A (obtained from Dr Lisa Ranford-Cartwright, University of Edinburgh) gametocytes were initiated and cultured using an adapted version of the traditional Trager and Jenson method modified by Fivelman and colleagues. Stage V gametocytes were purified on a 60% Percoll gradient. Purified parasite samples were diluted in warm complete media (RPMI-1640 (Sigma), 0.5% Albumax (Invitrogen), 0.03% L-glutamine (Sigma), 0.2% Glucose (Sigma), 1× hypoxanthine (Sigma)), to a volume that would allow a final volume of […] per sample and a haematocrit of <10%. […] Control tubes containing DMSO only were kept at 37 °C. All other samples were incubated at room temperature for 30 min immediately after addition of test compounds. Samples were then washed once in warm RPMI followed by removal of the supernatant to leave a final haematocrit of roughly 50%. Samples were smeared on glass slides and fixed in 100% methanol (VWR) then stained for 15 min in 10% Giemsa R66 (VWR) and observed by light microscopy. The number of gametocytes at stage V and rounded up per 900 erythrocytes were counted three consecutive times to produce an average count. Numbers of parasites rounded up were compared to the no drug control.

Series [6] has as its system P. falciparum gatekeeper mutant (T618Q) stage V gametocytes. Description: Gametogenesis (rounding up) assay, T618Q stage V gametocytes. In kind it is cell-based, Plasmodium falciparum. The settings on record: 30 µM xanthurenic acid; 2 µM ML1, 1 µM ML10.
The target of a further series is PfPKG (Plasmodium falciparum, UniProt Q8I719). Briefly: Microfluidic mobility shift kinase assay, recombinant PfPKG wild type.
Series [7] relates to P. falciparum lab isolate Dd2. Description: In vitro selection of resistant parasites. It counts as cell-based, Plasmodium falciparum. Particulars: 3× EC50, 10^9 parasites, up to Day 60. The method, then:
P. falciparum lab isolate Dd2 (from stocks held at LSHTM) was used for this experiment and the control compound used was atovaquone. Parasites were plated in triplicate at 10^9 parasites/well and maintained until parasites were observed microscopically (using Giemsa-stained blood films) or until Day 60 whichever was the soonest. […]. Gametocytes were present initially but were absent from Day 11.

Chain of PfPKG (Q8I719 whole entry): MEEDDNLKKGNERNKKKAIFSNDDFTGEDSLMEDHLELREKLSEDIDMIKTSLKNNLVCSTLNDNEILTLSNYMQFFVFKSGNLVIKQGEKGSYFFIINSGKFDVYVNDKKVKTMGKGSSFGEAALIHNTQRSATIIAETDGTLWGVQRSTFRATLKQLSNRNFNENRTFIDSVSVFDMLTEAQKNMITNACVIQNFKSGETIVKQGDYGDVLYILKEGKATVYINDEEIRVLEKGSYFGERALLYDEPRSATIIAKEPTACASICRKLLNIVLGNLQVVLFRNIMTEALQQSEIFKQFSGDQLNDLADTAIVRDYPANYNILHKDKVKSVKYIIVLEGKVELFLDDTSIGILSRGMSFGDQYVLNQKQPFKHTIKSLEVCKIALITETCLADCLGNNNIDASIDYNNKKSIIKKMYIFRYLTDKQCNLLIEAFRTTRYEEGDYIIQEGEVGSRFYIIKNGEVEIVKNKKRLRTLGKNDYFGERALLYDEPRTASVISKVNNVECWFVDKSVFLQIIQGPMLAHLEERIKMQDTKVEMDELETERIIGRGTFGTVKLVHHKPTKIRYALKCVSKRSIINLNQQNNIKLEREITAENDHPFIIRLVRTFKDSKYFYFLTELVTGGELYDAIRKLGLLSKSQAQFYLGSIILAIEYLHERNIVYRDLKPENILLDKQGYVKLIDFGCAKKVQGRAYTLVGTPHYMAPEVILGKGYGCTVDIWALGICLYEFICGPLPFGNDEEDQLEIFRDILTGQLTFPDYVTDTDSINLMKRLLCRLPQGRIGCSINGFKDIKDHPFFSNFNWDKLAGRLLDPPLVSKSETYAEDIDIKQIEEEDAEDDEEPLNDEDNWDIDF
Chain of PfPKG T618Q (Q8I719 whole entry T618Q): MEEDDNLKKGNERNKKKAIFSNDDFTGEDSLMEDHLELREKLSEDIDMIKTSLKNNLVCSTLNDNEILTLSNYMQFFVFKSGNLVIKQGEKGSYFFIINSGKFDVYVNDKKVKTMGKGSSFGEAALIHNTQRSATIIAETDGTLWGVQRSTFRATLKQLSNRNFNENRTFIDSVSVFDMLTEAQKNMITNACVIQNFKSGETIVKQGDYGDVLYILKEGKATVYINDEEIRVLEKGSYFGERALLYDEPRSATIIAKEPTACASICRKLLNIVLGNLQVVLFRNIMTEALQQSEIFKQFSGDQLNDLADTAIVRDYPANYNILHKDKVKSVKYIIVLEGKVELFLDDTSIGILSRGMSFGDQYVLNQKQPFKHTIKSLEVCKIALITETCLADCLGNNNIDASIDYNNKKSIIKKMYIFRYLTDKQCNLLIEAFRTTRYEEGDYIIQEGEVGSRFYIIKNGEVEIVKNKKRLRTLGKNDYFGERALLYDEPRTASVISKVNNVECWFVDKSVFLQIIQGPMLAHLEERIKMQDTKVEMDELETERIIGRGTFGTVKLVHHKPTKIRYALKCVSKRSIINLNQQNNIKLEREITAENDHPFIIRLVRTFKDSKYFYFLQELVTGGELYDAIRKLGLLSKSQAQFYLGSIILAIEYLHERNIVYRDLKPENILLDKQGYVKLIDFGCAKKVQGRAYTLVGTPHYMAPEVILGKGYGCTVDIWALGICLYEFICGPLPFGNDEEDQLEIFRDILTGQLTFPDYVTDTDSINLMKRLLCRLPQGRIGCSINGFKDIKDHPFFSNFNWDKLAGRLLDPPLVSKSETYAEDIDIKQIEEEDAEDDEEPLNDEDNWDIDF
Description for PfPKG T618Q: Full length PfPKG (NCBI accession code XP_001348520) with native codon usage was cloned into the pTrcHisC plasmid (Life Technologies) that includes an N-terminal His-tag as described previously[8]. […] Recombinant proteins were generated and purified using a protocol based on that described previously[8]. […] 500 ml cultures in LB Rich Broth (containing 50 μg/ml carbenicillin and 34 μg/ml chloramphenicol) were grown in a shaking incubator at 37 °C until reaching an optical density (O.D.) of 0.6–0.7. The temperature was reduced to 16 °C before induction of expression with 1 mM IPTG. Incubation at 16 °C was continued overnight.
The cultures were harvested by centrifugation at 4000×g at 4 °C for 30 min, the supernatant removed and the pellet stored at −80 °C for in excess of 1 h. The PKGs were purified via the histidine tag on HiTrap TALON (cobalt) columns (GE Healthcare) connected to an AKTA-FPLC as per the manufacturer's instruction. Fractions were analyzed by SDS-PAGE and the main peak concentrated on 10 kDa MWCO concentrators (Amicon). Purified proteins were stored in 50% glycerol at −80 °C in single use aliquots. The final buffer composition of the purified product was: 50 mM Tris/HCl pH 7.5, 0.1 mM EGTA, 150 mM NaCl, 0.1% β-mercaptoethanol, 50% glycerol, 0.03% Brij-35, 1 mM benzamidine and 0.2 mM PMSF.
IC50 values were determined for test compounds using a microfluidic mobility shift assay. Briefly, compounds were prepared over a 10-well ½ log dilution series in dimethyl sulfoxide (DMSO) in duplicate in 50 μl volumes using 384-well polypropylene U-bottomed plates (Thermo Scientific, UK). The plates contained positive/no inhibitor (DMSO only) and negative (no enzyme) controls in columns 1, 2, and 23, 24. […] Samples were pre-incubated at room temperature for 30 min and reactions were initiated by addition of 25 μl ATP mix (10 mM MgCl2 and ATP, at KM of the enzyme under test [20 µM PfPKG and 90 µM PfPKG T618Q], in water). Positive controls were complete reaction mixtures with 10% DMSO and negative controls were reaction mixtures with 10% DMSO but lacking enzyme. Reactions were allowed to proceed for 30 mins at room temperature, corresponding to conversion of approximately 10% of the substrate in the DMSO controls. Reactions were terminated by addition of 50 µl stop solution (25 mM EDTA in water). Samples were analyzed by electrophoretic separation of substrate and product peaks and fluorescence detection using a Caliper Lab Chip EZ reader. (Perkin Elmer, Waltham MA) with 0.2 s sip time, downstream voltage 500 V, upstream voltage 1950 V and pressure 0.5 to 1.5 psi. Substrate and product peak heights were measured and the ratio of the product peak height divided by the sum of the product and substrate peaks were determined using EZ reader software (version 3.0.265.0) to obtain percentage conversion (P) values. […] Liquid handling stages were conducted on a Biomek robotic liquid handler (Beckman Coulter).

Regarding `CN(C)Cc1ccn2c(-c3ccnc(N)n3)c(-c3ccc(F)cc3)nc2c1` [ML1, 4-[7-[(dimethylamino)methyl]-2-(4-fluorophenyl)imidazo[1,2-a]pyridine-3-yl]pyrimidin-2-amine, reference compound], the IC50 was 507 nM in [1], 8440 nM at PfPKG T618Q, over 20000 nM in series [3] and 3.1 nM at PfPKG. The same compound showed a mLogD in the series “physchem” of 2.4. Moreover, in the series on P. chabaudi (AS), the “reduction in blood stage parasitaemia” value amounted to 67.9%. The “hlm (%rem)” value in series [2] worked out at 70%. Besides, the EC50 with P. falciparum 3D7 is 395 nM. Also, the half-life in [4] was 1.1 h. In addition, the “rounding up of wild-type gametocytes” value in [5] is reported as “blocked rounding up”. Moreover, in [6], the “rounding up of T618Q gametocytes” value is on record as “insensitive”.

As for `O=C1C(O)=C([C@H]2CC[C@H](c3ccc(Cl)cc3)CC2)C(=O)c2ccccc21` [atovaquone], the “selection of resistant parasites” value in series [7] is given as “readily selected”.

What is called IC50 is the concentration needed to halve the response being measured. As a reminder, the EC50 is the midpoint of the concentration-response curve. Broadly, the half-life is how long it takes for the measured level to halve.

(Values after PMC5585294, “A potent series targeting the malarial cGMP-dependent protein kinase clears infection and blocks transmission” (Nature Communications, 2017).)
